From article PMC10704959 (Biochemistry, 2023)

Target: MoLOX (Pyricularia oryzae, UniProt G4NAP4)
Conditions: read-out: KMμM

MoLOX, sequence (G4NAP4 17-619 limits assumed): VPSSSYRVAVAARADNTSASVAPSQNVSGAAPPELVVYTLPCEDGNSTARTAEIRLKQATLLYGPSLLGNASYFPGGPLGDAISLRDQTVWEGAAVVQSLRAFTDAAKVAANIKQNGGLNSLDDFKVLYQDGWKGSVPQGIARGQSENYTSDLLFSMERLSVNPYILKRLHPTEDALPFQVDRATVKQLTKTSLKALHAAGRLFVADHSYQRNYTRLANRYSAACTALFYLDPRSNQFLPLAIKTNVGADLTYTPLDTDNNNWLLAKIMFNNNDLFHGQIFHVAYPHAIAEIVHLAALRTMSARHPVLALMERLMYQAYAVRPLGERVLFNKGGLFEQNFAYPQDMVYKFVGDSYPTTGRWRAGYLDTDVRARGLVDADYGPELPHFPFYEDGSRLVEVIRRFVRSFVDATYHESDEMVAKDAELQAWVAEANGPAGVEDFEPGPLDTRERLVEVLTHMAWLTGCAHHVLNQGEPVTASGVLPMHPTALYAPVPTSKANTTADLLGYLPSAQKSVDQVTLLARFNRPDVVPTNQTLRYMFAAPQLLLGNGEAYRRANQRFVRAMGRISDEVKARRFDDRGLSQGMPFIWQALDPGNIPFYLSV

## CCCCC/C=C\C/C=C\CCCCCCCC(=O)O [LA, linoleic acid]
  Km: 14 ± 2 µM
